Source: patent US20120157439A1, “RAF INHIBITOR COMPOUNDS AND METHODS OF USE THEREOF” (GENENTECH, INC., priority 2009, published 2012)
Where two headings read alike, the source gives them in different places.

Target: T1, V600E full-length B-Raf (Homo sapiens, UniProt P15056, V600E)
T1 construct: 1 μM FSBA-MEK and 20 nM V600E full-length B-Raf; made in house; host or cells: sf9 insect cells (baculovirus)
Test: B-Raf IC50 Assay (B-RAF V600E inhibition assay, Example A)
Assay type: biochemical
Method in brief: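 Full-length V600E B-Raf (20 nM, from Sf9 baculovirus) was preincubated 15 min with 1 μM FSBA-modified wild-type MEK in pH 7.2 Pipes/KCl/MgCl2 buffer, then started with 4 μM ATP plus [γ-33P]ATP. After 60 min at 22 °C, TCA-quenched product was filter-captured and 33P incorporation counted by scintillation.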

[1] = B-Raf V600E assay of Example A: less than 100 nM, read-out: IC50
[2] = B-Raf V600E assay of Example A: less than about 1 μM, read-out: IC50
[3] = incorporation of radio labeled phosphate from [γ-33P]ATP into FSBA-modified wild-type MEK, 4 μM ATP, 20 nM V600E full-length B-Raf, 60-minute incubation, 22° C., read-out: BRAF V600E IC50

T1 sequence (P15056 whole entry V600E): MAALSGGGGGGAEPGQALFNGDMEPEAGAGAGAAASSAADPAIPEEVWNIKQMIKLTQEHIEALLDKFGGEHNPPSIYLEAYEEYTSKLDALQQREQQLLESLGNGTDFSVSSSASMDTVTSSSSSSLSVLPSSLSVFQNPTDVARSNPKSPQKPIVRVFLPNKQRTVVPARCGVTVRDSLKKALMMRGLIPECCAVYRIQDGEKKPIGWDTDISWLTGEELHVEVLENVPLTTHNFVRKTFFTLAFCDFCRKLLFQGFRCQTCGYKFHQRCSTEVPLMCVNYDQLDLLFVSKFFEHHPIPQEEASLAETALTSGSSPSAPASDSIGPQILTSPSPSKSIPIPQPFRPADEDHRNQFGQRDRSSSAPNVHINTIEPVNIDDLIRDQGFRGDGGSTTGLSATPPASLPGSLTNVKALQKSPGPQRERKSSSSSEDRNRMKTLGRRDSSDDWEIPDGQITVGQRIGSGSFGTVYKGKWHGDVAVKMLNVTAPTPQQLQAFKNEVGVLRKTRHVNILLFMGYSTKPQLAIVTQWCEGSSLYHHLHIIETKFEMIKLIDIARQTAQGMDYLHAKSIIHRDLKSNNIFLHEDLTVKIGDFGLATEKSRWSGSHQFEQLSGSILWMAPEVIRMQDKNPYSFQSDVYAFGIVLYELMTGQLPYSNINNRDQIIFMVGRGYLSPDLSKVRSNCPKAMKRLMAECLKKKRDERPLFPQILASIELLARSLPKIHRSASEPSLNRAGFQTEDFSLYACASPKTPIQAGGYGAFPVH

Structure (SMILES)	IC50 [1] [nM]	IC50 [2] [nM]	IC50 [3] [nM]
CCCS(=O)(=O)Nc1cc(F)c(F)c(NC(=O)c2csc3c(NN4CCOCC4)ncnc23)c1F [Example 95, 4-(Morpholin-4-ylamino)-thieno[3,2-d] pyrimidine-7-carboxylic acid [2,3,6-trifluoro-5-(propane-1-sulfonyl-amino)-phenyl]-amide]	< 100	< 1000	5.09
O=C(Nc1c(F)c(F)cc(NS(=O)(=O)CCCF)c1F)c1csc2c(NC3CC3)ncnc12 [Example 97, 4-Cyclopropyl-amino-thieno [3,2-d] pyrimidine-7-carboxylic acid [2,3,6-trifluoro-5-(3-fluoro-propane-1-sulfonyl-amino)-phenyl]-amide]	< 100	< 1000	0.71
CCNc1ncnc2c(C(=O)Nc3c(F)c(F)cc(NS(=O)(=O)CCCF)c3F)csc12 [Example 98, 4-Ethylamino-thieno[3,2-d] pyrimidine-7-carboxylic acid [2,3,6-trifluoro-5-(3-fluoro-propane-1-sulfonyl-amino)-phenyl]-amide]	< 100	< 1000	2.16
CCCS(=O)(=O)Nc1ccc(F)c(NC(=O)c2sc(C)c3c(N)ncnc23)c1F [Example 99, 4-Amino-5-methyl-thieno[3,4-a]pyrimidine-7-carboxylic acid [2,6-difluoro-3-(propane-1-sulfonylamino)-phenyl]-amide]	< 100	< 1000	3
CCCS(=O)(=O)Nc1ccc(F)c(NC(=O)c2scc3c(N)ncnc23)c1F [Example 100, 4-Amino-N-(2,6-difluoro-3-(propylsulfonamido)phenyl)thieno[3,4-d]pyrimidine-7-carboxamide]	< 100	< 1000	29.8
CCCS(=O)(=O)Nc1ccc(F)c(NC(=O)c2ccc3c(N)ncnn23)c1F [Example 101, 4-Amino-pyrrolo[2,1-f][1,2,4]triazine-7-carboxylic acid [2,6-difluoro-3-(propane-1-sulfonylamino)-phenyl]-amide]	< 100	< 1000	2.5
CCCS(=O)(=O)Nc1ccc(F)c(NC(=O)c2c[nH]c3c(N)ncnc23)c1F [Example 102, 4-Amino-5H-pyrrolo[3,2-d]pyrimidine-7-carboxylic acid [2,6-difluoro-3-(propane-1-sulfonylamino)-phenyl]-amide]	< 100	< 1000	20.6
CCCS(=O)(=O)Nc1ccc(F)c(NC(=O)c2c[nH]c3c(NC)ncnc23)c1F [Example 103, 4-Methylamino-5H-pyrrolo[3,2-d]pyrimidine-7-carboxylic acid [2,6-difluoro-3-(propane-1-sulfonylamino)-phenyl]-amide]	–	< 1000	115
CCCS(=O)(=O)Nc1ccc(F)c(NC(=O)c2c[nH]c3c(NC4CC4)ncnc23)c1F [Example 104, 4-Cyclopropylamino-5H-pyrrolo[3,2-d]pyrimidine-7-carboxylic acid [2,6-difluoro-3-(propane-1-sulfonylamino)-phenyl]-amide]	< 100	< 1000	47.6
CCCS(=O)(=O)Nc1ccc(F)c(NC(=O)c2c[nH]c3c(NOC)ncnc23)c1F [Example 105, 4-Methoxyamino-5H-pyrrolo[2-d]pyrimidine-7-carboxylic acid [2,6-difluoro-3-(propane-1-sulfonylamino)-phenyl]-amide]	–	< 1000	112
CCCS(=O)(=O)Nc1ccc(F)c(NC(=O)c2c[nH]c3c(C)ncnc23)c1F [Example 106, 4-Methyl-5H-pyrrolo[3,2-d]pyrimidine-7-carboxylic acid [2,6-difluoro-3-(propane-1-sulfonylamino)-phenyl]-amide]	–	< 1000	189
CCCS(=O)(=O)Nc1ccc(Cl)c(NC(=O)c2csc3cncnc23)c1Cl [Example 107, Thieno[3,2-d]pyrimidine-7-carboxylic acid [2,6-dichloro-3-(propane-1-sulfonylamino)-phenyl]-amide]	< 100	< 1000	9.6
CCCS(=O)(=O)Nc1ccc(F)c(NC(=O)c2csc3cncnc23)c1F [Example 108, Thieno[3,2-d]pyrimidine-7-carboxylic acid [2,6-difluoro-3-(propane-1-sulfonylamino)-phenyl]-amide]	–	< 1000	288
O=C(Nc1c(F)ccc(NS(=O)(=O)CCCF)c1F)c1csc2cncnc12 [Example 109, Thieno[3,2-d]pyrimidine-7-carboxylic acid [2,6-difluoro-3-(3-fluoro-propane-1-sulfonyl-amino)-phenyl]-amide]	< 100	< 1000	40.3
O=C(Nc1c(Cl)ccc(NS(=O)(=O)CCCF)c1Cl)c1csc2cncnc12 [Example 110, Thieno[3,2-d]pyrimidine-7-carboxylic acid [2,6-dichloro-3-(3-fluoro-propane-1-sulfonyl-amino)-phenyl]-amide]	< 100	< 1000	2.69
CCCS(=O)(=O)Nc1ccc(Cl)c(NC(=O)c2csc3cncnc23)c1F [Example 111, Thieno[3,2-d]pyrimidine-7-carboxylic acid [6-chloro-2-fluoro-3-(propane-1-sulfonylamino)-phenyl]-amide]	< 100	< 1000	21.1
O=C(Nc1c(Cl)ccc(NS(=O)(=O)CCCF)c1F)c1nsc2cncnc12 [Example 112, Isothiazolo[4,5-d] pyrimidine-3-carboxylic acid [6-chloro-2-fluoro-3-(3-fluoro-propane-1-sulfonylamino)-phenyl]-amide]	< 100	< 1000	7.29
CCCS(=O)(=O)Nc1ccc(F)c(NC(=O)c2c[nH]c3cncnc23)c1F [Example 113, 5H-Pyrrolo[3,2-d] pyrimidine-7-carboxylic acid [2,6-difluoro-3-(propane-1-sulfonylamino)-phenyl]-amide]	–	< 1000	353
